Measured values as given in patent US10421769B2, “Anticancer property studies of chiral palladium N-heterocyclic carbene complexes and process for preparation thereof” (Indian Institute of Technology Bombay, priority 2017, dated 2019).
Entries after “also recorded” stand apart in the source; their conditions may differ.

Legend:
Format in all cases: cell-based, human
p21 in MCF-7 cells = test: Immunostaining for nuclear accumulation of p21; details: MCF-7, 4 and 8 μM, 36 h
Experimental: (§1) Experiment: MCF-7 (5×10^4 cells/well) cells were seeded on glass cover slip in a 24-well cell culture plate. After the cells were attached, they were incubated with 4 and 8 μM (1R,2R,5S)-1c for 36 h, fixed with 3.7% formaldehyde and processed for immunostaining. After fixing, cells were blocked with 2% BSA and incubated with anti-p53 IgG (1:300) and anti-p21 IgG (1:300) for 2 h at 37° C. Primary antibody incubation was followed by Alexa Fluor 568-conjugated sheep anti-mouse secondary IgG (1:400) incubation for 1 h at 37° C. Hoechst 33258 was used to stain the DNA. Immunofluorescence images were captured using Eclipse TE 2000U microscope (Nikon, Tokyo, Japan) at 40× magnification and processed by Image-Pro Plus software (Media Cybernetics, Silver Spring, Md.). To determine the percentage of cells with nuclear accumulation of p53 and p21, 1000 cells were scored in each case. The experiment was repeated thrice.

γ-H2AX in MCF-7 cells = test: Immunofluorescence microscopy for DNA damage (γ-H2AX); details: MCF-7, 4 and 8 μM, 36 h; cisplatin 4 μM as comparison
Experimental: Experiment: MCF-7 (5×10^4 cells/well) cells were seeded on glass cover slip in a 24 well cell culture plate. After the cell were attached, they were incubated with 4 and 8 μM (1R,2R,5S)-1c and 4 μM cisplatin for 36 h, fixed with 3.7% formaldehyde and processed for immunostaining. After fixing, cells were blocked with 2% BSA and incubated with anti-γ H2AX IgG (1:200) for 2 h at 37° C. followed by Alexa flour 555 goat anti-rabbit secondary IgG (1:400) for 1 h at 37° C. Hoechst 33258 was used to stain the DNA. Immunofluorescence imaging was performed using iPlan-apochromat 40×/1.3 NA oil immersion objective in Confocal Laser Scanning microscope. Image J software was used to calculate the fluorescence intensity. 500 cells were scored in each case.

p53 in MCF-7 cells = test: Immunostaining for nuclear accumulation of p53; details: MCF-7, 4 and 8 μM, 36 h
Experimental: as §1

A549 cells = test: Sulforhodamine B assay, A549 lung cancer cells; details: SRB
Experimental: The present invention further provides a Sulforhodamine B assay method for investigating the anti-cancer efficacies of the compounds of the present Pd—NHC series on MCF-7, HeLa, A549, B16-F10 and EMT6/AR1 cancer cell lines and also for a comparative study on normal skin cell line L929 and normal epithelial breast cells MCF10A. The said Sulforhodamine B assay is conducted as per reported method (Skehan et al., J. Natl. Cancer Inst. 1990, 82, 1107).

“trans-[1-(1R)-menthyl-4-(ethyl)-1,2,4-triazol-5-ylidene]2Pd(OCOCF3)2 [(1R,2R,5S)-1c]” was tested, and the “Nuclear accumulation of p21 (in words)” value (p21 in MCF-7 cells) was “nuclear accumulation of p21; also recorded: transcriptionally activates p21”, the “DNA damage, γ-H2AX immunostaining (in words)” value (γ-H2AX in MCF-7 cells) was “stronger DNA damaging effect on MCF-7 cells than cisplatin; also recorded: more DNA damage than compared to Cisplatin; also recorded: causes DNA damage in MCF-7 cells” and the “Nuclear accumulation of p53 (in words)” value (p53 in MCF-7 cells) was “leads to the nuclear accumulation of p53”. It also gave an IC50 (A549 cells) of 5.7 ± 1.6 µM.
